Measurements: patent publication US12319652B2, “Salts and solid forms of (R)-1-(5-methoxy-1H-indol-1-yl)-N,N-dimethylpropan-2-amine” (priority 2021, dated 2025)

Tests used:
[1] = Equilibrium humidity evaluation of crystalline compound 1 HCl Form A (95% RH/20° C.); format: physicochemical; conditions: 20° C./95% RH, open-capped and double bagged vials, 10-day period
Description: The stability of crystalline compound 1 HCl Form A was evaluated. Absorbent compound 1·Cl (Form A), (100 mg) was maintained, open-capped at 95% RH/20° C. and monitored at t=0, t=5 d and t=10 d, time points.
While absorbent Compound 1 HCl Form A), (100 mg) was placed open-capped inside double, cable-tied, electrostatic polythene bags (to mimic a typical packaging configuration) and placed inside the same humidity chamber at 95% RH at 20° C. and monitored at t=0, t=5 d and t=10 d time points. Stability of compound 1·HCl (Form A) at 40° C./75% RH was examined as part of the salt screen, and was stable over 10 d.

[2] = Solubility determinations in SIF buffers (FaSSIF, FeSSIF, FaSSGF); format: physicochemical; conditions: FaSSIF, FeSSIF and FaSSGF, 37° C., 24 h, concentration tested 30 mg/ml
Description: At this stage ca. 1 g of each front-runner salt form was prepared. Salt forms that offered significant solubility and stability advantages over the non-ionized API were prioritized. […] Scale Up
The solubility of the salts below was determined in FaSSIF, FeSSIF and FaSSGF by reference to the calibration curve of amorphous compound 1.
Separate portions of compound 1 were weighed out into aluminum boats and were charged to the relevant volumetric flasks. Solutions were made to volume with 1 to 1 (v/v) acetonitrile/purified water to give calibrants of known API concentrations and analyzed by HPLC, suitable to determine the concentration of compound 1 free base in the SIF buffer solubility study.
Each sample (150 mg) was suspended in the relevant SIF buffer (5.0 ml), to give a concentration of 30 mg/ml and maintain at 37° C. for 24 h. The pH was adjusted using 1 M HCl or 1 M NaOH, to ensure that the suspension remains in range.
Sample (1 ml) of the well-stirred representative suspensions was obtained at 1 h, 3 h, 6 h and 24 h and the pH was recorded. The pH of the bulk suspension was re-adjusted when necessary. The obtained sample from each vial was centrifuged, and the supernatant was analysed by HPLC (note, the analyte was diluted, when outside of the calibration range); XRPD analysis was performed on the wet sample pellet for evidence of form change, as well as on the oven-dried pellet (undervacuum at 40° C.).

[3] = format: physicochemical; conditions: 10 days; listed as compound 1·HCl (Form A)
Description: Equilibrium Humidity Evaluation (40° C./75% RH for 10 Days)
100 mg portions of compound 1 salts (for inputs see table below) were placed in the relevant open vials. The powders were finely divided and distributed evenly over the base of the vial, such that equal material coverage across the panel was observed. These samples were then maintained 40°C. under 75% RH. The samples were sub-sampled at intervals of 5 and 10 days and analysed by ^1H NMR, HPLC, XRPD, DSC, TGA and PLM, for evidence of phase change or chemical degradation (FIG. 269-297).

[4] = Dynamic vapor sorption (DVS); format: physicochemical; conditions: for DVS isotherm type / hygroscopicity: 0 to 90 to 0% RH
Description: There are two main methods to use, one is by time where the equilibration is given by a fixed time, i.e., 1 hour per step and is appropriate for an unknown phase. The second, is by mass per time unit (dm/dt) of 0.002%/min; that is when the difference in weight is less than 0.002%, the instrument moves onto the next step. For unknown hygroscopicity, the method by time is indicated because it gives an idea of water affinity without wasting much time. Ideally the analyses are repeated using the mass equilibration method to confirm. By experience for hygroscopic samples, the analysis can continue for days. For non-hygroscopic samples the difference between the two methods may not be significant.
Consequently, amorphous batch 1 was analyzed by the fixed time method and once compound 1 fumarate crystalline polymorphic Form A was generated the analyses was repeated as mass per unit time equilibrated @dm/dt ([…]) and is given below (refer to FIG. 12).
(§1) The moisture sorption properties of the feed API were analysed by DVS Intrinsic instrument (Surface Measurement System). Approximately 20 to 50 mg of API was weighed onto an aluminium pan and loaded into the instrument equilibrated at 25° C. The sample was equilibrated under a dry atmosphere (0% relative humidity) for 60 minutes, before increasing the humidity from 0% to 30% at 5%4 step increment and from 30% to 90% at 10% step increment. A desorption cycle was also applied from 90% to 30% (10% step decrement) and from 30% to 0% (5% step decrement). A rate of change in mass per time unit (dm/dt) of 0.002%/min was set as the equilibrium parameter. Kinetic and isotherm graphs were calculated.
Specimens were equilibrated at 0% RH for 60 min, prior to DVS analyses (stepped increment % RH up to 90% RH and stepped decrement % RH down to 0% RH.
as §1, with “5%” for “5%4”

In the case of `COc1ccc2c(ccn2C[C@@H](C)N(C)C)c1.Cl` [Crystalline compound 1 HCl Form A], the “Water uptake by TG analyses” value [1] is reported as “did not show any water uptake”, the “Solubility in SIF buffers” value [2] is reported as “Solubility in SIF buffers: Soluble in all SIF buffers at 37 °C during 24 h” and the “Stability at 40° C./75% RH” value [3] is reported as “stable”. The “DVS isotherm type / hygroscopicity” value ([4]; listed as Compound 1·HCl Form A) was “slightly hygroscopic”, the “DVS isotherm type / hygroscopicity” value ([4]; listed as crystalline compound 1 HCl Form A) was “Slightly hygroscopic” and the “DVS mass change at 0.0% RH” value ([4]; desorption step, dm/dt <0.002%) was 0.0239%. The “DVS mass change at 5.0% RH” value ([4]; desorption step, dm/dt <0.002%) was 0.0344%, the “DVS mass change at 10.0% RH” value ([4]; desorption step, dm/dt <0.002%) was 0.0455% and the “DVS mass change at 15.0% RH” value ([4]; desorption step, dm/dt <0.002%) was 0.0547%. For the same compound, the “DVS mass change at 20.0% RH” value ([4]; desorption step, dm/dt <0.002%) was 0.0648%, the “DVS mass change at 25.0% RH” value ([4]; desorption step, dm/dt <0.002%) was 0.0714% and the “DVS mass change at 30.0% RH” value ([4]; desorption step, dm/dt <0.002%) was 0.0860%. For the same compound, the “DVS mass change at 40.0% RH” value ([4]; desorption step, dm/dt <0.002%) was 0.0968%, the “DVS mass change at 50.0% RH” value ([4]; desorption step, dm/dt <0.002%) was 0.1367% and the “DVS mass change at 60.0% RH” value ([4]; desorption step, dm/dt <0.002%) was 0.1671%. For the same compound, the “DVS mass change at 70.0% RH” value ([4]; desorption step, dm/dt <0.002%) was 0.2211%, the “DVS mass change at 80.0% RH” value ([4]; desorption step, dm/dt <0.002%) was 0.2935% and the “DVS desorption behaviour (hysteresis)” value ([4]; during desorption, listed as crystalline compound 1 HCl Form A) was “held on to a little water at 0% RH”. For the same compound, the “DVS mass change at 0.0% RH” value ([4]; sorption step, dm/dt <0.002%) was “DVS 0 to 90 to 0% RH (dm/dt <0.002%): 0.0 (0.0011%), 5.0”, the “DVS mass change at 5.0% RH” value ([4]; sorption step, dm/dt <0.002%) was 0.0078% and the “DVS mass change at 10.0% RH” value ([4]; sorption step, dm/dt <0.002%) was 0.0161%. For the same compound, the “DVS mass change at 15.0% RH” value ([4]; sorption step, dm/dt <0.002%) was 0.0248%, the “DVS mass change at 20.0% RH” value ([4]; sorption step, dm/dt <0.002%) was 0.0329% and the “DVS mass change at 25.0% RH” value ([4]; sorption step, dm/dt <0.002%) was 0.0379%. For the same compound, the “DVS mass change at 30.0% RH” value ([4]; sorption step, dm/dt <0.002%) was 0.0462%, the “DVS mass change at 40.0% RH” value ([4]; sorption step, dm/dt <0.002%) was 0.0659% and the “DVS mass change at 50.0% RH” value ([4]; sorption step, dm/dt <0.002%) was 0.0961%. The “DVS mass change at 60.0% RH” value ([4]; sorption step, dm/dt <0.002%) was 0.1388%, the “DVS mass change at 70.0% RH” value ([4]; sorption step, dm/dt <0.002%) was 0.1902% and the “DVS mass change at 80.0% RH” value ([4]; sorption step, dm/dt <0.002%) was 0.2647%. For the same compound, the “DVS mass change at 90.0% RH” value ([4]; sorption step, dm/dt <0.002%) was 0.4599%.
